In patent US8916709B2, “1,2,4-oxadiazole and 1,2,4-thiadiazole β-lactamase inhibitors” (priority 2012, dated 2014):
Counter-ions that a name gives are not always drawn.

Experiments:
[1] = system: bacterial strains that express OXA-15 β-lactamases; test: Standard BLI potentiation MIC / synergy MIC assays, strains expressing OXA-15; format: cell-based, E. coli; conditions: in combination with a β-lactam; versus Avibactam (comparator compound CCC)
Excerpt: (§1) A set of β-lactamase expressing isogenic E. coli strains was constructed by cloning a β-lactamase gene into a customized derivative of pBR322 (GenBank Accession Number J01749) and transforming the engineered plasmids into E. coli. The NdeI restriction site within the plasmid backbone of pBR322 was removed to generate pBR322ΔNdeI. The pBR322ΔNdeI vector itself, minus the blaTEM-1 gene, was amplified using two primers: (1) pBR-Pbla 5′-[…]-3, SEQ ID 1, a primer with an engineered NdeI restriction site at the 3′ end of the blaTEM-1 promoter and (2) pBR-vec-1 5′-[…]-3′, SEQ ID 2, a primer with an engineered BamHI restriction site at the 3′ end of the blaTEM-1 open reading frame. The chloramphenicol resistance gene, cat, was generated by PCR amplification from pKD3 (GenBank Accession Number AY048742) using primers with an engineered NdeI restriction site at the 5′ end (Pbla-cat 5′-[…]-3′, SEQ ID 3) and an engineered BamHI restriction site at the 3′ end (Vec-1-cat 5′-[…]-3′, SEQ ID 4) of the resistance gene. The two PCR products, pBR322ΔNdeI and cat were ligated together generating pBR-CBST (pBR322ΔNdeI ΔTEM-1::cat Seq. ID 5) which retains both the pBR322 tetracycline resistance cassette, tetA, and the plasmid origin of replication but the blaTEM-1 gene was replaced by the cat gene.
(§2) Using this engineering strategy a number of plasmids producing β-lactamase genes from different classes (see below) were generated using synthetic genes with an engineered NdeI restriction site at the 5′ end and BamHI restriction site at the 3′ end of each gene (GenScript). Both the synthetic β-lactamase genes and cat gene were ligated into the NdeI/BamHI sites of the pBR322ΔNdeI PCR product and transformed into electrocompetent E. coli ElectroMax DH10B (Invitrogen/Life Technologies). E. coli DH10B harboring the recombinant plasmids were selected on LB agar (supplemented with 25 μg/mL tetracycline) and single isolated colonies were then inoculated into 5 mL LB media (supplemented with 25 μg/mL tetracycline), and incubated at 37° C. with aeration (250 rpm) for 18 hrs. The cultures were frozen back at −80° C. in 20% glycerol. The DNA sequence of the cloned β-lactamase genes was confirmed. The β-lactamase gene expression in the recombinant E. coli strains was driven by the blaTEM-1 promoter in the pBR-CBST plasmid and was characterized by MIC profiling of the E. coli recombinant strains against comparator β-lactam/BLI combinations in broth microdilution assay. […]

[2] = system: bacterial strains that express KPC β-lactamases; test: Standard BLI potentiation MIC / synergy MIC assays, strains expressing KPC; format: cell-based; conditions: in combination with a β-lactam; versus Avibactam
Excerpt: as §1, §2

SMILES | activity against strains that express OXA-15 β-lactamases compared with Avibactam [1] | activity / spectrum of activity against strains that express KPC β-lactamases compared with Avibactam [2]
Nc1nc([C@@H]2CC[C@@H]3CN2C(=O)N3OS(=O)(=O)O)no1 [Compound 805, (2S,5R)-2-(5-amino-1,2,4-oxadiazol-3-yl)-7-oxo-1,6-diazabicyclo[3.2.1]octan-6-yl hydrogen sulfate] | more active than Avibactam | more active than, and/or show a better spectrum of activity than Avibactam
O=C1N2C[C@@H](CC[C@H]2c2ncno2)N1OS(=O)(=O)O [Compound 801, (2S,5R)-2-(1,2,4-oxadiazol-5-yl)-7-oxo-1,6-diazabicyclo[3.2.1]octan-6-yl hydrogen sulfate] | more active than Avibactam | more active than, and/or show a better spectrum of activity than Avibactam
CCCC[N+](CCCC)(CCCC)CCCC.Nc1noc([C@@H]2CC[C@@H]3CN2C(=O)N3OS(=O)(=O)[O-])n1 [Compound 802, (2S,5R)-2-(3-amino-1,2,4-oxadiazol-5-yl)-7-oxo-1,6-diaza-bicyclo[3.2.1]octan-6-yl tetrabutylaminooxy sulfonate] | more active than Avibactam | more active than, and/or show a better spectrum of activity than Avibactam
O=C1N2C[C@@H](CC[C@H]2c2ncon2)N1OS(=O)(=O)O [Compound 804, (2S,5R)-2-(1,2,4-oxadiazol-3-yl)-7-oxo-1,6-diazabicyclo[3.2.1]octan-6-yl hydrogen sulfate] | more active than Avibactam | more active than, and/or show a better spectrum of activity than Avibactam
